Data reported in patent US12336981B2, “Compounds and compositions for the inhibition of NAMPT” (Valo Health, Inc., priority 2010, dated 2025).
Like-named read-outs stand apart in the source and are kept apart here.

Experiments:
A2780 cells = experiment: In-vitro cell proliferation assay (SRB), A2780 cells; format: cell-based; conditions: Homo sapiens, A2780, 72 h, A2780 cells, 72 hours, read-out: A2780 IC50
Method in brief: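 SRB read-out: 6% TCA fix 1 h at 4° C., stain, Tris solubilize, A570. Media-only background subtracted; % inhibition from two compound concentrations.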

NAMPT = molecular target: T1, NAMPT (Homo sapiens, UniProt P43490); experiment: Biochemical inhibition assay: NAMPT enzymatic reaction, NMN quantified by mass spectrometry; conditions: read-out: Biochem IC50
T1 construct: His tag; host or cells: E. coli
Method in brief: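 Inhibition of E. coli-expressed His-tagged human NAMPT, measured as NMN formation by mass spectrometry after a 30 min room-temperature reaction containing 1 μM NAM, 100 μM PRPP and 2.5 mM ATP.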

T1 sequence (P43490 whole entry): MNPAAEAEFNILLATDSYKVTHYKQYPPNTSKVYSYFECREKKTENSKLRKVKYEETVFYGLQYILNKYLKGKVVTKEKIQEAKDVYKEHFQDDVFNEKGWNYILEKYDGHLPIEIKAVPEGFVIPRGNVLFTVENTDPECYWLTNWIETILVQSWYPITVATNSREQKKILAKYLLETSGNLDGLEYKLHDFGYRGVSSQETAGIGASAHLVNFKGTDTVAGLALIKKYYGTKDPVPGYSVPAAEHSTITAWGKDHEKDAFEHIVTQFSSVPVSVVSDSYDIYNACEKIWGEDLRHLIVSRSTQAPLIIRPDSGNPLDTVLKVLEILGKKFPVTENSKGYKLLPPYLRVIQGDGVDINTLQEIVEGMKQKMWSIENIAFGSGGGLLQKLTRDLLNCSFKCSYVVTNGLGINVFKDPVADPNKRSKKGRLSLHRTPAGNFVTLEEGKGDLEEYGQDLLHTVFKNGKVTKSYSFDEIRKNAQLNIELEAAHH

CN(C)CCc1ccc(S(=O)(=O)c2ccc(CNC(=O)c3ccc4nccn4c3)cc2)cc1
IC50 (A2780 cells; SRB): 0.8 nM
IC50 (NAMPT; NAMPT enzymatic assay): 2.1 nM

COCc1cccc(S(=O)(=O)c2ccc(CNC(=O)c3ccc4nccn4c3)cc2)c1
IC50 (A2780 cells; SRB): 6.8 nM
IC50 (NAMPT; NAMPT enzymatic assay): 6.7 nM

CCCCOc1cc(F)ccc1S(=O)(=O)c1ccc(CNC(=O)c2ccc3nccn3c2)cc1
IC50 (A2780 cells; SRB): 6.2 nM
IC50 (NAMPT; NAMPT enzymatic reaction): 51.2 nM

Cc1c(F)cccc1S(=O)(=O)c1ccc(CNC(=O)c2cc3cnccc3[nH]2)cc1
IC50 (A2780 cells; SRB): 13.2 nM
IC50 (NAMPT; NAMPT enzymatic reaction): 57.6 nM

N#Cc1ccc(S(=O)(=O)c2ccc(CNC(=O)c3ccc4nccn4c3)cc2)cc1
IC50 (A2780 cells; SRB): 14.1 nM
IC50 (NAMPT; NAMPT enzymatic reaction): 16 nM

O=C(NCc1ccc(S(=O)(=O)N2CCCCC2)cc1)c1ccn2ccnc2c1 [N-{[4-(piperidine-1-sulfonyl)phenyl]methyl}imidazo[1,2-a]pyridine-7-carboxamide]
IC50 (A2780 cells; SRB assay): > 500 nM
IC50 (NAMPT; NAMPT enzymatic reaction): > 100 nM

CCN(CC)C(=O)c1cc(F)cc(S(=O)(=O)c2ccc(CNC(=O)c3cc4cnccc4[nH]3)cc2)c1
IC50 (A2780 cells; SRB): 3.3 nM
IC50 (NAMPT; NAMPT enzymatic assay): 9.3 nM

CCCOc1ccc(S(=O)(=O)c2ccc(CNC(=O)c3cc4ccncc4s3)cc2)cc1
IC50 (A2780 cells; SRB): 8.1 nM
IC50 (NAMPT; NAMPT enzymatic reaction): 4.3 nM

Cn1ncc2c(S(=O)(=O)c3ccc(CNC(=O)c4ccc5nccn5c4)cc3)cccc21 [N-{[4-(1-methyl-1H-indazole-4-sulfonyl)phenyl]methyl}imidazo[1,2-a]pyridine-6-carboxamide]
IC50 (A2780 cells; SRB): 3 nM
IC50 (NAMPT; NAMPT enzymatic assay): 12.5 nM

O=C(NCc1ccc(S(=O)(=O)c2ccc3c(c2)OCO3)cc1)c1cnc2nccn2c1 [N-{[4-(2H-1,3-benzodioxole-5-sulfonyl)phenyl]methyl}imidazo[1,2-a]pyrimidine-6-carboxamide]
IC50 (A2780 cells; SRB): 11.7 nM
IC50 (NAMPT; NAMPT enzymatic assay): 3 nM

COc1cc(C(F)(F)F)ccc1S(=O)(=O)c1ccc(CNC(=O)c2ccc3nccn3c2)cc1 [N-[(4-{[2-methoxy-4-(trifluoromethyl)benzene]sulfonyl}phenyl)methyl]imidazo[1,2-a]pyridine-6-carboxamide]
IC50 (A2780 cells; SRB): 9.84 nM
IC50 (NAMPT; NAMPT enzymatic assay): 26.4 nM

COc1ccc(OC(F)(F)F)cc1S(=O)(=O)c1ccc(CNC(=O)c2cc3cnccc3[nH]2)cc1
IC50 (A2780 cells; SRB): 6.6 nM
IC50 (NAMPT; NAMPT enzymatic assay): 48.1 nM

O=C(NCc1ccc(S(=O)(=O)c2ccccc2OC(F)(F)F)cc1)c1cnc2nccn2c1 [N-[(4-{[2-(trifluoromethoxy)benzene]sulfonyl}phenyl)methyl]imidazo[1,2-a]pyrimidine-6-carboxamide]
IC50 (A2780 cells; SRB): 11.5 nM
IC50 (NAMPT; NAMPT enzymatic assay): 2.4 nM

Cc1ccc(Cl)c(S(=O)(=O)c2ccc(CNC(=O)c3cnc4[nH]ncc4c3)cc2)c1F [N-({4-[(6-chloro-2-fluoro-3-methylbenzene)sulfonyl]phenyl}methyl)-1H-pyrazolo[3,4-b]pyridine-5-carboxamide]
IC50 (A2780 cells; SRB): 100 to 1000 nM
IC50 (NAMPT; NAMPT enzymatic assay): 112 nM

O=C(NCc1ccc(NS(=O)(=O)c2ccccc2OC(F)(F)F)cc1)c1cc2cnccc2[nH]1 [N-[(4-{[2-(trifluoromethoxy)benzene]sulfonamido}phenyl)methyl]-1H-pyrrolo[3,2-c]pyridine-2-carboxamide]
IC50 (A2780 cells; SRB assay): 1 nM
IC50 (NAMPT; NAMPT enzymatic reaction): 3 nM

O=C(NCc1ccc(S(=O)(=O)c2ccc(-c3ccccc3)cc2)cc1)c1cc2cc(O)ccc2[nH]1
IC50 (A2780 cells; SRB): 1000 to 10000 nM
IC50 (NAMPT; NAMPT enzymatic reaction): 100 to 1000 nM

O=C(NCc1ccc(S(=O)(=O)c2cnc3ccc(Cl)cn23)cc1)c1cc2ccncc2s1 [N-[(4-{6-chloroimidazo[1,2-a]pyridine-3-sulfonyl}phenyl)methyl]thieno[2,3-c]pyridine-2-carboxamide]
IC50 (A2780 cells; SRB): 0.4 nM
IC50 (NAMPT; NAMPT enzymatic assay): 1.2 nM

CCN(CC)C(=O)c1cc(Cl)cc(S(=O)(=O)c2ccc(CNC(=O)c3cnc4nccn4c3)cc2)c1
IC50 (A2780 cells; SRB): 1.2 nM
IC50 (NAMPT; NAMPT enzymatic assay): 0.9 nM

CCOCc1ccc(S(=O)(=O)c2ccc(CNC(=O)c3cc4cnccc4[nH]3)cc2)cc1
IC50 (A2780 cells; SRB): 6.8 nM
IC50 (NAMPT; NAMPT enzymatic assay): 22.5 nM

CCc1cccc(S(=O)(=O)c2ccc(CNC(=O)c3cc4ccncc4s3)cc2)c1 [N-({4-[(3-ethylbenzene)sulfonyl]phenyl}methyl)thieno[2,3-c]pyridine-2-carboxamide]
IC50 (A2780 cells; SRB assay): 2.7 nM
IC50 (NAMPT; NAMPT enzymatic reaction): 6 nM

O=C(NCc1ccc(S(=O)(=O)c2ccc(OCC(F)(F)F)c(F)c2)cc1)c1cc2ccncc2s1
IC50 (A2780 cells; SRB): 23.5 nM
IC50 (NAMPT; NAMPT enzymatic assay): 4.6 nM

COc1ccc(S(=O)(=O)c2ccc(CNC(=O)c3cnc4[nH]ncc4c3)cc2)cc1OC
IC50 (A2780 cells; SRB): 5.6 nM
IC50 (NAMPT; NAMPT enzymatic reaction): 20.6 nM

COc1ccc(Cl)c(S(=O)(=O)c2ccc(CNC(=O)c3cc4ccncc4o3)cc2)c1
IC50 (A2780 cells; SRB): 20.6 nM
IC50 (NAMPT; NAMPT enzymatic reaction): 2.6 nM

Cc1cnc(S(=O)(=O)c2ccc(CNC(=O)c3cnc4nccn4c3)cc2)n1C [N-{[4-(1,5-dimethyl-1H-imidazole-2-sulfonyl)phenyl]methyl}imidazo[1,2-a]pyrimidine-6-carboxamide]
IC50 (A2780 cells; SRB): 1000 to 10000 nM
IC50 (NAMPT; NAMPT enzymatic assay): 32.9 nM

CN1CCN(c2ccc(S(=O)(=O)c3ccc(CNC(=O)c4cc5ccncc5o4)cc3)cc2)CC1
IC50 (A2780 cells; SRB): 0.5 nM
IC50 (NAMPT; NAMPT enzymatic assay): 1 nM

COc1ccc(C)cc1S(=O)(=O)c1ccc(CNC(=O)c2cc3cnccc3[nH]2)cc1 [N-({4-[(2-methoxy-5-methylbenzene)sulfonyl]phenyl}methyl)-1H-pyrrolo[3,2-c]pyridine-2-carboxamide]
IC50 (A2780 cells; SRB assay): 3 nM
IC50 (NAMPT; NAMPT enzymatic reaction): 12 nM

Cc1cc(C)c(S(=O)(=O)c2ccc(CNC(=O)c3cnc4nccn4c3)cc2)cc1C
IC50 (A2780 cells; SRB): 24 nM
IC50 (NAMPT; NAMPT enzymatic reaction): 6.9 nM

COc1c(C)cc(S(=O)(=O)c2ccc(CNC(=O)c3ccc4nccn4c3)cc2)cc1C
IC50 (A2780 cells; SRB): 1.4 nM
IC50 (NAMPT; NAMPT enzymatic reaction): 14.6 nM

Cn1ncc2cccc(S(=O)(=O)c3ccc(CNC(=O)c4ccc5nccn5c4)cc3)c21 [N-{[4-(1-methyl-1H-indazole-7-sulfonyl)phenyl]methyl}imidazo[1,2-a]pyridine-6-carboxamide]
IC50 (A2780 cells; SRB): 27.5 nM
IC50 (NAMPT; NAMPT enzymatic assay): 28.7 nM

O=C(NCc1ccc(S(=O)(=O)c2cccc(OC(F)F)c2)cc1)c1cc2ccncc2o1
IC50 (A2780 cells; SRB): 3 nM
IC50 (NAMPT; NAMPT enzymatic assay): 2.8 nM

COc1ccc(C)c(NS(=O)(=O)c2ccc(CNC(=O)c3cc4cnccc4[nH]3)cc2)c1 [N-({4-[(5-methoxy-2-methylphenyl)sulfamoyl]phenyl}methyl)-1H-pyrrolo[3,2-c]pyridine-2-carboxamide]
IC50 (A2780 cells; SRB assay): 13000 nM
IC50 (NAMPT; NAMPT enzymatic reaction): 51 nM

COc1cc(-n2cccn2)ccc1S(=O)(=O)c1ccc(CNC(=O)c2cnc3[nH]ncc3c2)cc1
IC50 (A2780 cells; SRB): 9.4 nM
IC50 (NAMPT; NAMPT enzymatic assay): 24.2 nM

COc1ccc(S(=O)(=O)c2ccc(CNC(=O)c3cnc4[nH]ncc4c3)cc2)cc1F [N-({4-[(3-fluoro-4-methoxybenzene)sulfonyl]phenyl}methyl)-1H-pyrazolo[3,4-b]pyridine-5-carboxamide]
IC50 (A2780 cells; SRB): 6 nM
IC50 (NAMPT; NAMPT enzymatic reaction): 43 nM

O=C(NCc1ccc(S(=O)(=O)c2cnc3ccccc3c2)cc1)c1cnc2nccn2c1 [N-{[4-(quinoline-3-sulfonyl)phenyl]methyl}imidazo[1,2-a]pyrimidine-6-carboxamide]
IC50 (A2780 cells; SRB): 3.6 nM
IC50 (NAMPT; NAMPT enzymatic assay): 2.5 nM

O=C(NCc1ccc(S(=O)(=O)c2cccc3ccsc23)cc1)c1cc2ccncc2o1 [N-{[4-(1-benzothiophene-7-sulfonyl)phenyl]methyl}furo[2,3-c]pyridine-2-carboxamide]
IC50 (A2780 cells; SRB): 13.9 nM
IC50 (NAMPT; NAMPT enzymatic assay): 4.9 nM

Cc1cc(C)cc(S(=O)(=O)c2ccc(CNC(=O)c3cnc4[nH]ncc4c3)cc2)c1
IC50 (A2780 cells; SRB): 6.1 nM
IC50 (NAMPT; NAMPT enzymatic reaction): 10.4 nM

O=C(NCc1ccc(S(=O)(=O)CCc2ccccc2)cc1)C1=Nc2ccncc2C1 [N-({4-[(2-phenylethane)sulfonyl]phenyl}methyl)-1H-pyrrolo[3,2-c]pyridine-2-carboxamide]
IC50 (A2780 cells; SRB assay): 22 nM
IC50 (NAMPT; NAMPT enzymatic reaction): 11 nM
